Values joined by “and” are separate entries in the source; they are usually repeats but may differ in a detail not shown here. Equal values may be shown once.
Test system: SEAP and Luciferase expression in HEK293T cells
Test: SIMO designer cells (AIR-1/2-GEMS + CDH-1/2-TF)
Type: cell-based
Text: Fig. 5 Orthogonal chemical switches enable implementation of multi-input multi-output control modes in mammalian cells. a Scheme of multi-inputs multi-outputs (MIMO) designer cells where two drugs control two different outputs. b, c Cells were co-transfected with AIR-1/2-GEMS and CDH-3-TF regulate SEAP and Luciferase expression, respectively. […] AIR-1/2-GEMS coupled with SEAP expression circuits were co-transfected with CDH-1/2-TF circuits which control the Luciferase production. Respective drug concentrations ranged from 0.001 nM to 1 µM. All values presented are mean ± s.d. of three replicates and curves were fitted by four-parameters nonlinear regression. b, c, e, f, h, i Source data are available in the source data file.
Finally, we engineered SIMO cells (Fig. 5g) using two designed switches that produce ON and OFF responses upon exposure to the same drug. We transfected cells with combinations of AIR-GEMS and CDH-TFs which controlled the expression of the reporter proteins SEAP and Luciferase, respectively. […] Therefore, computational design expanded the repertoire of protein switches controlled by the same compounds that can be used to simultaneous turn ON and OFF synergistic outputs. […]
AIR-1-GEMS coupled with SEAP expression circuits (i) and CDH-1-TF circuits which control the Luciferase production (j). j-k) Quantification of SEAP and Luciferase activities under Drug-2. AIR-2-GEMS coupled with SEAP expression circuits (k) and CDH-2-TF circuits which control the Luciferase production (l). b-k) Each data point represents the mean of n = 3 biological replicates, and the dose-dependent curve were fitted using four-parameter nonlinear regression.

[1] = Fig S13i, CDH-1-TF control Luciferase expression only, Drug-1 0.01 nM
[2] = Fig S13i, CDH-1-TF control Luciferase expression only, Drug-1 10 nM
[3] = Fig S13i, CDH-1-TF control Luciferase expression only, Drug-1 31.6 nM
[4] = Fig S13i, CDH-1-TF control Luciferase expression only, Drug-1 100 nM
[5] = Fig S13i, CDH-1-TF control Luciferase expression only, Drug-1 316 nM
[6] = Fig S13h, AIR-1-GEMS control SEAP expression only, Drug-1 0.01 nM
[7] = Fig S13h, AIR-1-GEMS control SEAP expression only, Drug-1 0.1 nM
[8] = Fig S13h, AIR-1-GEMS control SEAP expression only, Drug-1 1 nM

With `CN(C)CC#Cc1ccc(OCCCc2sc(N3CCc4cccc(C(=O)Nc5nc6ccccc6s5)c4C3)nc2C(=O)O)c(F)c1` [Drug-1, A-1155463] the “SEAP and Luciferase outputs in SIMO cells” value (0.001 nM to 1 µM) was “simultaneously activated SEAP production and suppressed the expression of Luciferase”, the SEAP (Fig5h, turn ON via AIR-1-GEMS, 0.001 nM) was 19.8743 U/L and 19.5134 U/L and 15.1383 U/L and the SEAP (Fig5h, turn ON via AIR-1-GEMS, 0.005 nM) was 19.2907 U/L and 17.6338 U/L and 18.8337 U/L. The SEAP (Fig5h, turn ON via AIR-1-GEMS, 0.01 nM) was 18.6271 U/L and 21.8407 U/L and 37.1349 U/L, the SEAP (Fig5h, turn ON via AIR-1-GEMS, 0.05 nM) was 37.9776 U/L and 52.7802 U/L and 54.2278 U/L and the SEAP (Fig5h, turn ON via AIR-1-GEMS, 0.1 nM) was 39.7647 U/L and 50.8999 U/L and 76.4896 U/L. The SEAP (Fig5h, turn ON via AIR-1-GEMS, 0.5 nM) was 46.7816 U/L and 46.7958 U/L and 68.9342 U/L, the SEAP (Fig5h, turn ON via AIR-1-GEMS, 1 nM) was 36.1123 U/L and 44.1109 U/L and 47.7004 U/L and the SEAP (Fig5h, turn ON via AIR-1-GEMS, 5 nM) was 163.102 U/L and 218.766 U/L and 249.722 U/L. The SEAP (Fig5h, turn ON via AIR-1-GEMS, 10 nM) was 315.129 U/L and 324.74 U/L and 353.471 U/L, the SEAP (Fig5h, turn ON via AIR-1-GEMS, 50 nM) was 364.997 U/L and 306.053 U/L and 339.025 U/L and the SEAP (Fig5h, turn ON via AIR-1-GEMS, 100 nM) was 443.801 U/L and 453.931 U/L and 405.497 U/L. For the same molecule, the SEAP (Fig5h, turn ON via AIR-1-GEMS, 500 nM) was 488.063 U/L and 432.803 U/L and 436.708 U/L, the SEAP (Fig5h, turn ON via AIR-1-GEMS, 1000 nM) was 411.613 U/L and 466.826 U/L and 364.664 U/L and the Luciferase (Fig5h, via CDH-1-TF, 0.005 nM) was 13170 and 13560 and 13671. The Luciferase (Fig5h, via CDH-1-TF, 0.01 nM) was 14134 and 13430 and 12324, the Luciferase (Fig5h, via CDH-1-TF, 0.05 nM) was 14625 and 13685 and 11174 and the Luciferase (Fig5h, via CDH-1-TF, 0.5 nM) was 10957 and 11915 and 9777. For the same molecule, the Luciferase (Fig5h, via CDH-1-TF, 1 nM) was 11394 and 11027 and 9891, the Luciferase (Fig5h, via CDH-1-TF, 5 nM) was 9387 and 10202 and 8501 and the Luciferase (Fig5h, via CDH-1-TF, 10 nM) was 9897 and 9353 and 8698. The Luciferase (Fig5h, via CDH-1-TF, 50 nM) was 8493 and 5450 and 4767, the Luciferase (Fig5h, via CDH-1-TF, 100 nM) was 6159 and 4105 and 3304 and the Luciferase (Fig5h, via CDH-1-TF, 500 nM) was 6685 and 4541 and 3781. The Luciferase [1] was 4.631 RLU and 4.974 RLU and 6.289 RLU, the SEAP [1] was 47563 U/L and 58731 U/L and 59991 U/L and the SEAP (Fig S13i, CDH-1-TF control Luciferase expression only, Drug-1 0.1 nM) was 53899 U/L and 50028 U/L and 61321 U/L. The SEAP (Fig S13i, CDH-1-TF control Luciferase expression only, Drug-1 1 nM) was 51520 U/L and 52067 U/L and 58888 U/L, the SEAP (Fig S13i, CDH-1-TF control Luciferase expression only, Drug-1 3.16 nM) was 43654 U/L and 44498 U/L and 55865 U/L and the Luciferase [2] was 5.35 RLU and 3.637 RLU and 4.7853 RLU. For the same molecule, the SEAP [2] was 47243 U/L and 36047 U/L and 43911 U/L, the Luciferase [3] was 10.558 RLU and 9.125 RLU and 9.89 RLU and the SEAP [3] was 41739 U/L and 35234 U/L and 36053 U/L. For the same molecule, the Luciferase [4] was 6.8735 RLU and 7.9639 RLU and 7.26 RLU, the SEAP [4] was 32885 U/L and 32749 U/L and 33680 U/L and the Luciferase [5] was 7.503 RLU and 9.5502 RLU and 5.763 RLU. For the same molecule, the SEAP [5] was 36324 U/L and 29686 U/L and 32588 U/L, the SEAP (Fig S13i, CDH-1-TF control Luciferase expression only, Drug-1 1000 nM) was 22215 U/L and 22717 U/L and 21612 U/L and the Luciferase [6] was 7.197 RLU and 7.213 RLU and 7.2493 RLU. For the same molecule, the SEAP [6] was 251 U/L and 231 U/L and 325 U/L, the Luciferase [7] was 7.338 RLU and 6.8 RLU and 5.088 RLU and the SEAP [7] was 201 U/L and 203 U/L and 381 U/L. The Luciferase [8] was 9.026 RLU and 10.0168 RLU, the SEAP [8] was 267 U/L and 249 U/L and 441 U/L and the SEAP (Fig S13h, AIR-1-GEMS control SEAP expression only, Drug-1 3.16 nM) was 363 U/L and 301 U/L and 409 U/L. For the same molecule, the SEAP (Fig S13h, AIR-1-GEMS control SEAP expression only, Drug-1 10 nM) was 551 U/L and 601 U/L, the SEAP (Fig S13h, AIR-1-GEMS control SEAP expression only, Drug-1 31.6 nM) was 639 U/L and 579 U/L and 471 U/L and the SEAP (Fig S13h, AIR-1-GEMS control SEAP expression only, Drug-1 100 nM) was 421 U/L and 435 U/L and 441 U/L. For the same molecule, the Luciferase (Fig S13h, AIR-1-GEMS control SEAP expression only, Drug-1 316 nM) was 232.378 RLU and 215.546 RLU and 184.304 RLU.

Reference: PMC8486872, “A rational blueprint for the design of chemically-controlled protein switches” (Nature Communications, 2021)
